Broadly, the EC50 is the midpoint of the concentration-response curve.

The source of these data is patent publication US9980945B2, “Benzoisoxazole-substituted compounds as MGLUR4 allosteric potentiators, compositions, and methods of treating neurological dysfunction” (Vanderbilt University, priority 2015, dated 2018).

The structures appear in SMILES notation. Some results are limits rather than exact numbers.

The experiment addresses mGluR4 (UniProt Q14833). As to the kind of experiment: mGluR4 potentiation assay (EC50 for potentiation at EC20 agonist; fluorometric plate reader, Ca2+ or thallium dye). In kind it is cell-based. To be noted: potentiation of mGluR4; species of receptor not given. Here is the method: The disclosed compounds and compositions can be evaluated for their ability to act as a potentiator of metabotropic glutamate receptor activity, in particular mGluR4 activity, by any suitable known methodology known in the art. For example, Chinese Hamster Ovary (CHO) cells transacted with human mGluR4 or HEK cells co-transfected with rat mGluR4 and the G-protein regulated Inwardly Rectifying Potassium channel (GIRK) were plated in clear bottom assay plates for assay in a Hamamatsu FDSS Fluorometric Plate Reader. The cells were loaded with either a Ca2+-sensitive fluorescent dye or the thallium responsive dye and the plates were washed and placed into a suitable kinetic plate reader. For human mGluR4 assays, a fluorescence baseline was established for 3-5 seconds, the disclosed compounds were then added to the cells, and the response in cells was measured. Approximately two and a half minutes later, a concentration of mGluR4 orthosteric agonist (e.g. glutamate or L-AP4) eliciting approximately 20% (EC20) of the maximal agonist response was added to the cells, and the response was measured. Two minutes later, a concentration of mGluR4 agonist (e.g. glutamate or L-AP4) eliciting 80% (EC80) of the maximal agonist response was added to the cells, and the response was measured. For rat mGluR4/GIRK experiments, a baseline was established for approximately five seconds, disclosed compounds were added, and either an EC20 or EC80 concentration of agonist was added approximately two and one half minutes later. Potentiation of the agonist response of mGluR4 by the disclosed compounds was observed as an increase in response to the EC20 concentration of agonist in the presence of compound compared to the response to agonist in the absence of compound. Similarly, antagonism of the agonist response of mGluR4 by the disclosed compounds was observed as a decrease in response to the EC80 concentration of agonist in the presence of compound compared to the response to agonist in the absence of compound.
The above described assay operated in two modes. In the first mode, a range of concentrations of the disclosed compounds are added to cells, followed by a single fixed concentration of agonist. If the compound acts as a potentiator, an EC50 so value for potentiation and a maximum extent of potentiation by the compound at this concentration of agonist is determined by non-linear curve fitting. If the compound acts as a noncompetitive antagonist, an IC50 value is determined by non-linear curve fitting. In the second mode, several fixed concentrations of the disclosed compounds are added to various wells on a plate, followed by a range in concentrations of agonist for each concentration of disclosed compound. The EC50 values for the agonist at each concentration of compound are determined by non-linear curve fitting. A decrease in the EC50 value of the agonist with increasing concentrations of the sample compound (a leftward shift of the agonist concentration-response curve) is an indication of the degree of mGluR4 potentiation at a given concentration of the sample compound. A decrease in the maximal response of the agonist with increasing concentrations of the sample compounds, with or without a rightward shift in agonist potency, is an indication of the degree of noncompetitive antagonism at mGluR4. The second mode also indicates whether the sample compounds also affect the maximum response to mGluR4 to agonists.
Consider `COc1ncc(Cc2noc3cc(Nc4n[nH]c5cccnc45)ccc23)cn1` [Example 166, 3-[(2-methoxypyrimidin-5-yl)methyl]-N-(1H-pyrazolo[4,3-b]pyridin-3-yl)-1,2-benzoxazol-6-amine], for which the EC50 amounted to 387 nM. Regarding `FC(F)(F)CCc1noc2cc(Nc3n[nH]c4nccnc34)ccc12` [Example 100, N-(1H-pyrazolo[3,4-b]pyrazin-3-yl)-3-(3,3,3-trifluoropropyl)-1,2-benzoxazol-6-amine], the EC50 is 192 nM.

As to `C[C@@H](NCc1noc2cc(Nc3n[nH]c4cccnc34)ccc12)C(C)(C)C` [Example 79, N-(1H-pyrazolo[4,3-b]pyridin-3-yl)-3-[[[(1R)-1,2,2-trimethylpropyl]amino]methyl]-1,2-benzoxazol-6-amine], the EC50 was determined as 622 nM.

As to `CCCC(C)c1noc2cc(Nc3n[nH]c4ncc(F)cc34)ccc12` (centres unmarked) [Example 96, N-(5-fluoro-1H-pyrazolo[3,4-b]pyridin-3-yl)-3-(1-methylbutyl)-1,2-benzoxazol-6-amine], the concentration for a half-maximal effect (EC50) is 418 nM. Regarding `CC(C)Cc1noc2cc(Nc3n[nH]c4cccnc34)ccc12` [Example 12, 3-isobutyl-N-(1H-pyrazolo[4,3-b]pyridin-3-yl)benzo[d]isoxazol-6-amine], the EC50 is 826 nM.

In the case of `CCCC(C)c1noc2cc(Nc3n[nH]c4cccnc34)ccc12` (centres unmarked) [Example 94, 3-(1-methylbutyl)-N-(1H-pyrazolo[4,3-b]pyridin-3-yl)-1,2-benzoxazol-6-amine], the EC50 is 118 nM. `CN(Cc1ccncc1)C(=O)Cc1noc2cc(Nc3n[nH]c4cccnc34)ccc12` [Example 160, N-methyl-2-[6-(1H-pyrazolo[4,3-b]pyridin-3-ylamino)-1,2-benzoxazol-3-yl]-N-(4-pyridylmethyl)acetamide]: the concentration for a half-maximal effect (EC50) came out at 3430 nM.

In the case of `Cc1noc2ccc(Nc3n[nH]c4ncc(F)cc34)cc12` [Example 104, N-(5-fluoro-1H-pyrazo!o[3,4-b]pyridin-3-yl)-3-methyl-1,2-benzoxazol-5-amine], the EC50 was 216 nM. Consider `FCCc1noc2cc(Nc3n[nH]c4cccnc34)ccc12` [Example 177, 3-(2-fluoroethyl)-N-(1H-pyrazolo[4,3-b]pyridin-3-yl)-1,2-benzoxazol-6-amine], for which the EC50 came to 890 nM. Under `CCc1noc2cc(Nc3n[nH]c4ccccc34)ccc12` [Example 18, 3-ethyl-N-(1H-imdazol-3-yl)benzo[d]isoxazol-6-amine] stands 1940 nM; under `CC(c1ccccn1)N(C)C(=O)Cc1noc2cc(Nc3n[nH]c4cccnc34)ccc12` (centres unmarked) [Example 165, N-methyl-2-[6-(1H-pyrazolo[4,3-b]pyridin-3-ylamino)-1,2-benzoxazol-3-yl]-N-[1-(2-pyridyl)ethyl]acetamide], 2300 nM; under `CC(C)(C)Cc1noc2cc(Nc3n[nH]c4ncccc34)cc(F)c12` [Example 148, 3-(2,2-dimethylpropyl)-4-fluoro-N-(1H-pyrazolo[3,4-b]pyridin-3-yl)-1,2-benzoxazol-6-amine], more than 30000 nM. As for `CCCCC(C)(F)c1noc2cc(Nc3n[nH]c4cccnc34)ccc12` (centres unmarked) [Example 134, 3-(1-fluoro-1-methyl-pentyl)-N-(1H-pyrazolo[4,3-b]pyridin-3-yl)-1,2-benzoxazol-6-amine], the half-maximal effective concentration (EC50) was determined as 2660 nM.

Consider `CC(C)(C)CNCc1noc2cc(Nc3n[nH]c4cccnc34)ccc12` [Example 77, 3-[(2,2-dimethylpropylamino)methyl]-N-(1H-pyrazolo[4,3-b]pyridin-3-yl)-1,2-benzoxazol-6-amine], for which the EC50 was found to be 539 nM. As to `ClC1(c2noc3cc(Nc4n[nH]c5cccnc45)ccc23)CCC1` [Example 6, 3-(1-chlorocyclobutyl)-N-(1H-pyrazolo[4,3-b]pyridin-3-yl)benzo[d]isoxazol-6-amine], the EC50 was more than 10000 nM. Regarding `CCc1noc2cc(Nc3n[nH]c4nccnc34)ccc12` [Example 19, 3-ethyl-N-(1H-pyrazolo[3,4-b]pyrazin-3-yl)benzo[d]isoxazol-6-amine], the concentration for a half-maximal effect (EC50) came to 1310 nM. For `O=C(Cc1noc2cc(Nc3n[nH]c4ncccc34)ccc12)NC1CC(F)(F)C1` [Example 142, N-(33-difluorocyclobutyl)-2-[6-(1H pyrazolo[3,4-b]pyridin-3-ylamino)-1,2-benzoxazol-3-yl]acetamide], the EC50 is more than 10000 nM. Under `ClC1(c2noc3cc(Nc4n[nH]c5nccnc45)ccc23)CCC1` [Example 8, 3-(1-chlorocyclobutyl)-N-(1H-pyrazolo[3,4-b]pyrazin-3-yl)benzo[d]isoxazol-6-amine] stands 185 nM. Regarding `CC1CN(c2noc3cc(Nc4n[nH]c5cccnc45)ccc23)CC(C)O1` (centres unmarked) [Example 28, 3-(2,6-dimethylmorpholino)-N-(1H-pyrazolo[4,3-b]pyridin-3-yl)benzo[d]isoxazol-6-amine], the EC50 stood at 1860 nM. Regarding `O=C(Cc1noc2cc(Nc3n[nH]c4cccnc34)ccc12)N1CCOCC1` [Example 143, 1-morpholino-2-[6-(1H-pyrazolo[4,3-b]pyridin-3-ylamino)-1,2-benzoxazol-3-yl]ethanone], the EC50 worked out at 1360 nM.

For `Cc1noc2ccc(Nc3n[nH]c4cccnc34)cc12` [Example 22, 3-methyl-N-(1H-pyrazolo[4,3-b]pyridin-3-yl)benzo[d]isoxazol-5-amine], the EC50 stood at 76 nM. Under `O=C(NC1CC(F)(F)C1)c1noc2cc(Nc3n[nH]c4cccnc34)ccc12` [Example 29, 6-((1H-pyrazolo[4,3-b]pyridin-3-yl)amino)-N-(3,3-difluorocyclobutyl)benzo[d]isoxazole-3-carboxamide] stands 249 nM; under `O=C(Cc1noc2cc(Nc3n[nH]c4cccnc34)ccc12)N1CCN(CC(F)(F)F)CC1` [Example 161, 2-[6-(1H-pyrazolo[4,3-b]pyridin-3-ylamino)-1,2-benzoxazol-3-yl]-1-[4-(2,2,2-trifluoroethyl)piperazin-1-yl]ethanone], 1870 nM.

Take `CC(C)(C)Cc1noc2c(F)c(Nc3n[nH]c4cccnc34)ccc12` [Example 163, 3-(2,2-dimethylpropyl)-7-fluoro-N-(1H-pyrazolo[4,3-b]pyridin-3-yl)-1,2-benzoxazol-6-amine]: the EC50 was more than 30000 nM. For `CC(c1ccc2c(cnn2C)c1)c1noc2cc(Nc3n[nH]c4cccnc34)ccc12` (centres unmarked) [Example 31, 3-(1-(1-methyl-1H-indazol-5-yl)ethyl)-N-(1H-pyrazolo[4,3-b]pyridin-3-yl)benzo[d]isoxazol-6-amine], the EC50 is 645 nM. Take `CC(c1ccc(=O)[nH]c1)c1noc2cc(Nc3n[nH]c4cccnc34)ccc12` (centres unmarked) [Example 139, 5-[1-[6-(1H-pyrazolo[4,3-b]pyridin-3-ylamino)-1,2-benzoxazol-3-yl]ethyl]-1H-pyridin-2-one]: the half-maximal effective concentration (EC50) is more than 10000 nM. Consider `CC(C)(C)Cc1noc2c(F)c(Nc3n[nH]c4nccnc34)ccc12` [Example 164, 3-(2,2-dimethylpropyl)-7-fluoro-N-(1H-pyrazolo[3,4-b]pyrazin-3-yl)-1,2-benzoxazol-6-amine], for which the EC50 is more than 30000 nM. Under `CC(C)(C)Cc1noc2cc(Nc3n[nH]c4cccnc34)ccc12` [Example 11, 3-neopentyl-N-(1H-pyrazolo[4,3-b]pyridin-3-yl)benzo[d]isoxazol-6-amine] stands 521 nM; under `c1cncc(OCc2noc3cc(Nc4n[nH]c5cccnc45)ccc23)c1` [Example 169, N-(1H-pyrazolo[4,3-b]pyridin-3-yl)-3-(3-pyridyloxymethyl)-1,2-benzoxazol-6-amine], more than 30000 nM.
